The values that follow are results of earlier work, collected in patent publication US20040097404A1, “Supplement to be enternally administered for parenteral nutrition or partial enteral/oral nurtrition of the critically ill, the chronically ill and people with malnutrition” (priority 2000, published 2004).

The conditions of data set [1]: oral, daily doses of 50 to 400 mg/kg of body weight over 3 weeks.

For the compound `CCCC(=O)OCC(COC(=O)CCC)OC(=O)CCC` [glycerol tributyrate], in data set [1], the “butyrate concentration in the plasma” value is recorded as roughly 0.5 mmol and the toxic side effects entry is listed as “without detectable toxic side effects”.

With `[Cr+3]` [trivalent chromium], the “carcinogenic properties at autopsy” value (parenteral form for 21 years, patient) was “no evidence of carcinogenic properties”. The toxicity entry (trivalent chromium) is “nontoxic”.
